According to US20200123147A1, “THIAZOLE COMPOUNDS USEFUL AS PRMT5 INHIBITORS” (Bayer Aktiengesellschaft, priority 2017, published 2020):

Biological target: T1, PRMT5:MEP50 protein complex (Homo sapiens, UniProt O14744)
T1 construct: FLAG (N); made in house; host or cells: Hi5 insect cells
Assay: In vitro assay 1: PRMT5 SPA assay ("EAA")
Type: biochemical
Settings: scintillation proximity assay, methylation of biotinylated H4(1-24) peptide, 3H-SAM, 60 min at 22° C.
Description: In Vitro Assay 1: PRMT5 SPA Assay (“EAA”)
PRMT5 inhibitory activities of the compounds described in the present invention were quantified using a scintillation proximity assay (SPA) which measures methylation by the enzyme of a synthetic, biotinylated peptide corresponding to the N-terminal sequence of Histone H4 (a.a. 1-24). The peptide of sequence […]-K(Btn)-amide is commercially available (e.g. from Biosyntan) and will be herein referred to as H4(1-24). The PRMT5:MEP50 protein complex used in the assay was produced in house following standard protocols. Briefly, full length PRMT5 and MEP50 constructs respectively tagged with N-terminal FLAG and 6× His sequences were co-expressed in Hi5 insect cells, and the recombinant protein complex was purified by FLAG affinity and size exclusion chromatography.
In a typical assay 11 different concentrations of each compound (0.1 nM, 0.33 nM, 1.1 nM, 3.8 nM, 13 nM, 44 nM, 0.15 μM, 0.51 μM, 1.7 μM, 5.9 μM and 20 μM) were tested in duplicate within the same microtiter plate. To this end, 100-fold concentrated compound solutions (in DMSO) were previously prepared by serial dilution (1:3.4) of 2 mM stocks in a clear low volume 384-well source microtiter plate (Greiner Bio-One), from which 50 nl of compounds were transferred into a white low volume test microtiter plate from the same supplier. Subsequently, 2.5 μL PRMT5 in aqueous assay buffer [20 mM Bicine pH 8.0 (Alfa Aesar), 7.5 mM Tris(2-carboxyethyl) phosphine hydrochloride (TCEP, Sigma), 0.1% (w/v) bovine gamma globuline (BGG, Sigma), 0.002% (v/v) Tween-20 (Sigma)] were added to the compounds in the test plate to a final enzyme concentration of—typically—7.5 nM (this parameter was adjusted depending on the activity of the enzyme lot in order to be within the linear dynamic range of the assay). The samples were then incubated for 15 min at 22° C. to allow pre-equilibration of the putative enzyme-inhibitor complexes before the start of the methylation reaction, which was initiated by the addition of 2.5 μL 2-fold concentrated solution (in assay buffer) of “cold” S-Adenosyl-L-Methionine (SAM, Sigma, final concentration: 0.5 μM), tritiated 3H-SAM (Perkin Elmer, final concentration: 0.5 μM) and H4(1-24) peptide substrate (final concentration: 0.06 μM). The resulting mixture (5 μL final volume) was shortly centrifuged (2 min., 1500 rpm) and incubated at 22° C. during 60 min. Thereupon the reaction was stopped by adding 3 μL of Streptavidin PS SPA imaging beads (Perkin Elmer, final concentration of 0.375 μg/μL) and “cold” SAM (AK Scientific, 250 μM final concentration) for non-specific binding reduction. Plates containing the stopped reaction were sealed with transparent adhesive foil (Perkin Elmer), centrifuged (2 min., 1500 rpm), and further incubated either 1 h at 22° C. or overnight at 4° C. in order to allow the SPA signals to develop. Subsequently, the amount of product was evaluated by measuring the energy transfer from the β-particles emitted by the 3H-labeled substrate to the Europium scintillator co-polymerized in the polystyrene matrix of the PS imaging beads, using the standard settings for this purpose of a Viewlux (Perkin-Elmer) CCD plate imaging device (emission filter 613/55 (IFP).
The resulting scintillation counts were taken as indicator for the amount of methylated peptide per well. The data were normalised using two sets of control wells (typically 16 each) for high—(=enzyme reaction with DMSO instead of test compound=0%=minimum inhibition) and low—(=all assay components without enzyme=100%=maximum inhibition) PRMT5 activity. IC50 values were calculated by fitting the normalized inhibition data to a 4-parameter logistic equation using the “Screener” analysis software from Genedata.

T1 sequence (O14744 whole entry, species assumed): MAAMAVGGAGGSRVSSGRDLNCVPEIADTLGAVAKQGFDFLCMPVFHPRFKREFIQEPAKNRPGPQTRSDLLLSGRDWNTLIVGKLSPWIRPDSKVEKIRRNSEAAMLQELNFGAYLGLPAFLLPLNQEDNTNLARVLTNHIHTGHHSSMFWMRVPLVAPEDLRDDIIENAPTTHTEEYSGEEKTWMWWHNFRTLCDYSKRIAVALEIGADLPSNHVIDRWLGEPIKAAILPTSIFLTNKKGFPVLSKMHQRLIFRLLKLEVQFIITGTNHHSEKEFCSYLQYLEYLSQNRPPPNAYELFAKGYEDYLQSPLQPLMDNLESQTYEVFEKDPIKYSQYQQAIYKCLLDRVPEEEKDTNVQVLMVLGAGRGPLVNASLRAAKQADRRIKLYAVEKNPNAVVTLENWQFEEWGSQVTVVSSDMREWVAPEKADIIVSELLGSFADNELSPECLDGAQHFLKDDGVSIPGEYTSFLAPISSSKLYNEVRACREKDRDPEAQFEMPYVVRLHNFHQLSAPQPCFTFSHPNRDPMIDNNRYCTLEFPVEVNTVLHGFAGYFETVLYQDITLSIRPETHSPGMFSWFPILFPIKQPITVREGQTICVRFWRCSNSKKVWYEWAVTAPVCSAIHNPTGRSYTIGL
T1 sequence (Q9BQA1 whole entry partner, species assumed): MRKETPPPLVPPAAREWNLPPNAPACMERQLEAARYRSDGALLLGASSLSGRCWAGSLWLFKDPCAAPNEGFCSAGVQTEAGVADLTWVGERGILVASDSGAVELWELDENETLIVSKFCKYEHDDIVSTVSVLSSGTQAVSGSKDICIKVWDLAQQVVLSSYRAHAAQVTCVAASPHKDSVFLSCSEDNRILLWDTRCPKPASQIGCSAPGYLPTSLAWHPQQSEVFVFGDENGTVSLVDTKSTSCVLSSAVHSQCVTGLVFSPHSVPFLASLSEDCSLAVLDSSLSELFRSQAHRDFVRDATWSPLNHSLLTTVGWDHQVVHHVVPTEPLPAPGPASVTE

SMILES	IC50 [µM]
O=C(Nc1ccn(CCO)n1)c1csc(Nc2ccccc2)n1 [Example 28, N-[1-(2-Hydroxyethyl)-1H-pyrazol-3-yl]-2-(phenylamino)-1,3-thiazole-4-carboxamide]	9.1
CC(C)(C)c1cc(NC(=O)c2csc(Nc3ccc(F)c(F)c3)n2)no1 [Example 45, N-(5-tert-Butyl-1,2-oxazol-3-yl)-2-[(3,4-difluorophenyl)amino]-1,3-thiazole-4-carboxamide]	0.815
Cc1ccc(Nc2nc(C(=O)Nc3cc(C(C)(C)C)on3)cs2)nc1 [Example 34, N-(5-tert-Butyl-1,2-oxazol-3-yl)-2-[(5-methylpyridin-2-yl)amino]-1,3-thiazole-4-carboxamide]	0.0418
O=C(c1csc(Nc2ccc(Cl)cc2)n1)N1CCC(N2CCc3ccccc3C2)CC1 [Example 27, {2-[(4-Chlorophenyl)amino]-1,3-thiazol-4-yl}{4-[3,4-dihydroisoquinolin-2(1H)-yl]piperidin-1-yl}methanone]	7.61
CC(C)(C)c1cc(NC(=O)c2csc(NC3CC3)n2)no1 [Example 32, N-(5-tert-Butyl-1,2-oxazol-3-yl)-2-(cyclopropylamino)-1,3-thiazole-4-carboxamide]	14.7
CC(C)(C)c1cc(NC(=O)c2csc(Nc3ccc4ccoc4c3)n2)no1 [Example 40, 2-(1-Benzofuran-6-ylamino)-N-(5-tert-butyl-1,2-oxazol-3-yl)-1,3-thiazole-4-carboxamide]	0.35
CC(C)(C)c1cc(NC(=O)c2csc(Nc3ccc(Cl)cn3)n2)no1 [Example 35, N-(5-tert-Butyl-1,2-oxazol-3-yl)-2-[(5-chloropyridin-2-yl)amino]-1,3-thiazole-4-carboxamide]	0.0496
CC(C)(C)c1cc(NC(=O)c2csc(Nc3cccc(F)c3F)n2)no1 [Example 52, N-(5-tert-Butyl-1,2-oxazol-3-yl)-2-[(2,3-difluorophenyl)amino]-1,3-thiazole-4-carboxamide]	12.3
CC(C)(C)c1cc(NC(=O)c2csc(Nc3ccc(Cl)c(F)c3)n2)no1 [Example 39, N-(5-tert-Butyl-1,2-oxazol-3-yl)-2-[(4-chloro-3-fluorophenyl)amino]-1,3-thiazole-4-carboxamide]	0.183
CC(C)(C)c1cc(NC(=O)c2csc(Nc3ccc4c(c3)CCC4)n2)no1 [Example 38, N-(5-tert-Butyl-1,2-oxazol-3-yl)-2-(2,3-dihydro-1H-inden-5-ylamino)-1,3-thiazole-4-carboxamide]	0.16
CC(C)(C)c1cc(NC(=O)c2csc(Nc3ccccc3F)n2)no1 [Example 25, N-(5-tert-Butyl-1,2-oxazol-3-yl)-2-[(2-fluorophenyl)amino]-1,3-thiazole-4-carboxamide]	2.49
Cc1ccc(Nc2nc(C(=O)Nc3cc(C(C)(C)C)on3)cs2)c(F)c1 [Example 41, N-(5-tert-Butyl-1,2-oxazol-3-yl)-2-[(2-fluoro-4-methylphenyl)amino]-1,3-thiazole-4-carboxamide]	0.426
CC(C)(C)c1cc(NC(=O)c2csc(Nc3cc(Cl)ccn3)n2)no1 [Example 36, N-(5-tert-Butyl-1,2-oxazol-3-yl)-2-[(4-chloropyridin-2-yl)amino]-1,3-thiazole-4-carboxamide]	0.105
COc1ccc2[nH]c(NC(=O)c3csc(Nc4ccc(Cl)cc4)n3)nc2c1 [Example 9, 2-[(4-Chlorophenyl)amino]-N-(5-methoxy-1H-benzimidazol-2-yl)-1,3-thiazole-4-carboxamide]	0.239
CC(C)(C)c1cc(NC(=O)c2csc(NCc3cccc(F)c3)n2)no1 [Example 42, N-(5-tert-Butyl-1,2-oxazol-3-yl)-2-[(3-fluorobenzyl)amino]-1,3-thiazole-4-carboxamide]	0.508
O=C(NCCCN1CCc2ccccc2C1)c1csc(Nc2ccc(Cl)cc2)n1 [Example 26, 2-[(4-Chlorophenyl)amino]-N-[3-(3,4-dihydroisoquinolin-2(1H)-yl)propyl]-1,3-thiazole-4-carboxamide]	7.85
N#Cc1c[nH]nc1NC(=O)c1csc(Nc2ccccc2)n1 [Example 30, N-(4-Cyano-1H-pyrazol-3-yl)-2-(phenylamino)-1,3-thiazole-4-carboxamide]	12

Continued by falling IC50, values first:

IC50 [µM]	SMILES
10.5	C#Cc1cccc(Nc2nc(C(=O)Nc3cc(C(C)(C)C)on3)cs2)c1 [Example 51, N-(5-tert-Butyl-1,2-oxazol-3-yl)-2-[(3-ethynylphenyl)amino]-1,3-thiazole-4-carboxamide]
9.68	Cc1c(NC(=O)c2csc(Nc3ccc(Cl)cc3)n2)noc1C(C)(C)C [Example 29, N-(5-tert-Butyl-4-methyl-1,2-oxazol-3-yl)-2-[(4-chlorophenyl)amino]-1,3-thiazole-4-carboxamide]
6.71	Cc1cc(F)ccc1Nc1nc(C(=O)Nc2cc(C(C)(C)C)on2)cs1 [Example 50, N-(5-tert-Butyl-1,2-oxazol-3-yl)-2-[(4-fluoro-2-methylphenyl)amino]-1,3-thiazole-4-carboxamide]
5.68	CC(C)(C)c1cc(NC(=O)c2csc(NCC3CCCO3)n2)no1 (racemic) [Example 49, (rac)-N-(5-tert-Butyl-1,2-oxazol-3-yl)-2-{[-tetrahydrofuran-2-ylmethyl]amino}-1,3-thiazole-4-carboxamide]
2.99	CC(C)(C)c1cc(NC(=O)c2csc(Nc3cccc(Cl)c3)n2)no1 [Example 48, N-(5-tert-Butyl-1,2-oxazol-3-yl)-2-[(3-chlorophenyl)amino]-1,3-thiazole-4-carboxamide]
2.54	CC(C)(C)c1cc(NC(=O)c2csc(Nc3ccc(C#N)cc3)n2)no1 [Example 24, N-(5-tert-Butyl-1,2-oxazol-3-yl)-2-[(4-cyanophenyl)amino]-1,3-thiazole-4-carboxamide]
1.3	CC(C)(C)c1cc(NC(=O)c2csc(Nc3ccccc3C(=O)Nc3cc4ccccc4cn3)n2)no1 [Example 47, N-(5-tert-Butyl-1,2-oxazol-3-yl)-2-{[2-(isoquinolin-3-ylcarbamoyl)phenyl]amino}-1,3-thiazole-4-carboxamide]
1.2	CC(C)(C)c1cc(NC(=O)c2csc(Nc3ccc(F)c(Cl)c3)n2)no1 [Example 46, N-(5-tert-Butyl-1,2-oxazol-3-yl)-2-[(3-chloro-4-fluorophenyl)amino]-1,3-thiazole-4-carboxamide]
0.606	CC(C)(C)c1cc(NC(=O)c2csc(NCc3ccco3)n2)no1 [Example 44, N-(5-tert-Butyl-1,2-oxazol-3-yl)-2-[(furan-2-ylmethyl)amino]-1,3-thiazole-4-carboxamide]
0.438	CC(C)(C)c1cc(NC(=O)c2csc(Nc3ccccc3)n2)n[nH]1 [Example 16, N-(5-tert-Butyl-1H-pyrazol-3-yl)-2-(phenylamino)-1,3-thiazole-4-carboxamide]
0.28	O=C(Nc1nccs1)c1csc(Nc2ccc(Cl)cc2)n1 [Example 11, 2-[(4-Chlorophenyl)amino]-N-(1,3-thiazol-2-yl)-1,3-thiazole-4-carboxamide]
0.118	CC(C)(C)c1cc(NC(=O)c2csc(Nc3ccc(F)cn3)n2)no1 [Example 6, N-(5-tert-Butyl-1,2-oxazol-3-yl)-2-[(5-fluoropyridin-2-yl)amino]-1,3-thiazole-4-carboxamide]
